This is an account of results in article PMC11203978, “Discovery of Di(het)arylmethane and Dibenzoxanthene Derivatives as Potential Anticancer Agents” (International Journal of Molecular Sciences, 2024).

SMILES strings stand for the structures. Where a name gives a salt, the structure may show the parent alone. Read-outs that look alike come from different tables or passages of the source.

In data set [1] the test system is Chang Liver. As to the kind of experiment: MTT cytotoxicity, normal Chang liver cells. Type of data set: cell-based, human. To be noted: 48 h incubation, read-out: IC50 (µM) Normal Cell Line Chang Liver. An excerpt:
(§1) Cells and Materials. For the experiments, we used tumor cell cultures M-HeLa clone 11 (epithelioid carcinoma of the cervix, subline HeLa, clone M-HeLa), HuTu 80, human duodenal adenocarcinoma, Hep-2, human epithelial cells, SH-SY5Y, human neuroblast-like cells, A549, human lung adenocarcinoma, PA-1, human ovarian teratocarcinoma and MCF-7, a human mammary ductal adenocarcinoma from the collection of the Institute of Cytology, Russian Academy of Sciences (St. Petersburg, Russia); human liver cells (Chang liver) were from the collection and the Research Institute of Virology of the Russian Academy of Medical Sciences (Moscow, Russia).
(§2) MTT Assay. The cytotoxic effect on cells was determined using the colorimetric method of cell proliferation—the MTT test. NADP-H-dependent cellular oxidoreductase enzymes can, under certain conditions, reflect the number of viable cells. These enzymes reduce the tetrazolium dye (MTT) 3-(4,5-dimethylthiazol-2-yl)-2,5-diphenyl-tetrazolium bromide to insoluble blue-violet formazan, which crystallizes inside the cell. The amount of formed formazan is proportional to the number of cells with active metabolism. Cells were seeded on a 96-well Nunc plate at a concentration of 5 × 10^3 cells per well in a volume of 100 μL of medium and cultured in a CO2 incubator at 37 °C until a monolayer was formed. After the nutrient medium was removed, 100 µL of the test drug solutions at the given dilutions were added to the wells, which were prepared directly in the nutrient medium with the addition of 5% DMSO to improve solubility. After 48 h of incubation of the cells with the tested compounds, the nutrient medium was removed from the plates and 100 µL of the nutrient medium without serum with MTT at a concentration of 0.5 mg/mL was added and incubated for 4 h at 37 °C. Formazan crystals were added 100 µL of DMSO to each well. Optical density was recorded at 540 nm on an Invitrologic microplate reader (Novosibirsk, Russia). The experiments for all compounds were repeated three times.
(§3) Statistical analysis. The IC50 values were calculated using the MLA–Quest Graph™ IC50 Calculator (AAT Bioquest, Inc., Sunnyvale, CA, USA), 14 February 2022. Statistical analysis was performed with the Mann–Whitney test (p < 0.05). Tabular and graphical data contain averages and standard error.

Data set [2] concerns M-HeLa. The data set can be described thus: MTT cytotoxicity, M-HeLa. Type of data set: cell-based, human. To be noted: MTT, 48 h incubation, read-out: IC50 (µM) Cancer Cell Lines M-HeLa.
From the text: as §1, §2, §3

Data set [3] concerns HuTu 80. As to the kind of experiment: MTT cytotoxicity, HuTu 80. Type of data set: cell-based, human. The following applies: for IC50: MTT, 48 h incubation, read-out: IC50 (µM) Cancer Cell Lines HuTu 80; for Selectivity index (SI) = IC50(normal)/IC50(tumoral): Chang liver vs HuTu 80.
From the text: as §1, §2, §3

For `O=C(C[P+](c1ccccc1)(c1ccccc1)c1ccccc1)NCC(c1cc2c(cc1O)OCO2)c1cc2c(cc1O)OCO2` [Compound 7a], the melting point (commonly the temperature, or range, at which the solid turns liquid) fell in the range of 178 to 181 °C. Moreover, the IC50 (commonly the concentration at which inhibition is half-maximal) in data set [1] (Homo sapiens, Chang liver) was above 100 µM. The IC50 in data set [2] (Homo sapiens, M-HeLa) was found to be 73.5 ± 6.2 µM. For the same compound, in data set [3] (Homo sapiens, HuTu80, 48 h), the IC50 was determined as 59.7 ± 4.6 µM.
For the compound `CCOC(CCNC(=O)CCl)OCC` [Compound 2b], the IC50 is above 100 µM in data set [1] (Homo sapiens, Chang liver); above 100 µM in data set [2] (Homo sapiens, M-HeLa); above 100 µM in data set [3] (Homo sapiens, HuTu80, 48 h).
`O=C(CCl)NCCCC(c1cc2c(cc1O)OCO2)c1cc2c(cc1O)OCO2` [Compound 4c] registered a melting point of 189 to 191 °C. Moreover, the IC50 in data set [1] (Homo sapiens, Chang liver) was above 100 µM. Further, the IC50 in data set [2] (Homo sapiens, M-HeLa) was above 100 µM. Further, in data set [3] (Homo sapiens, HuTu80, 48 h), the IC50 is above 100 µM.
With `CNC(=O)c1cc(Oc2ccc(NC(=O)Nc3ccc(Cl)c(C(F)(F)F)c3)cc2)ccn1` [Sorafenib, reference compound], the IC50 in data set [1] (Homo sapiens, Chang liver) was 35 ± 2.7 µM; in data set [2] (Homo sapiens, M-HeLa), 35.6 ± 2.8 µM; in data set [3] (Homo sapiens, HuTu80, 48 h), 5 ± 0.4 µM. For the same compound, in data set [3], the “Selectivity index (SI) = IC50(normal)/IC50(tumoral)” value (“Selectivity index” below) is recorded as 7.
As to `O=C(CCl)NCCC(c1cc2c(cc1O)OCO2)c1cc2c(cc1O)OCO2` [Compound 4b], the melting point fell in the range of 166 to 168 °C. Moreover, the IC50 in data set [1] (Homo sapiens, Chang liver) is above 100 µM. The IC50 in data set [2] (Homo sapiens, M-HeLa) stood at 84.6 ± 7.5 µM. For the same compound, the IC50 in data set [3] (Homo sapiens, HuTu80, 48 h) came to 26.2 ± 1.7 µM.
`O=C(C[n+]1ccccc1)NCC(c1cc2c(cc1O)OCO2)c1cc2c(cc1O)OCO2` [Compound 9a]: the melting point lay within 178 to 180 °C. The IC50 in data set [1] (Homo sapiens, Chang liver) is above 100 µM. Moreover, the IC50 in data set [2] (Homo sapiens, M-HeLa) is above 100 µM. For the same compound, the IC50 in data set [3] (Homo sapiens, HuTu80, 48 h) was above 100 µM.
Compound `O=C(NCC1c2c(ccc3ccc(O)cc23)Oc2ccc3ccc(O)cc3c21)c1nc2ccccc2[nH]1` [Compound 11b] came in with a melting point of 224 to 225 °C. For the same compound, in data set [1] (Homo sapiens, Chang liver), the IC50 was found to be 53.1 ± 4.3 µM. Further, the IC50 in data set [2] (Homo sapiens, M-HeLa) came to 94.3 ± 7.9 µM. In addition, the IC50 in data set [3] (Homo sapiens, HuTu80, 48 h) came out at 11.5 ± 0.9 µM.
For `C[P+](CC(=O)NCCC1c2c(ccc3ccccc23)Oc2ccc3ccccc3c21)(c1ccccc1)c1ccccc1` [Compound 6b], the IC50 is above 100 µM in data set [1] (Homo sapiens, Chang liver); 28.4 ± 1.8 µM in data set [2] (Homo sapiens, M-HeLa); 64.3 ± 5.2 µM in data set [3] (Homo sapiens, HuTu80, 48 h).
`O=C(CCl)NCC1c2c(ccc3ccc(O)cc23)Oc2ccc3ccc(O)cc3c21` [Compound 3b]: the melting point is above 250 °C. Moreover, in data set [1] (Homo sapiens, Chang liver), the IC50 came out at 78.2 ± 6.8 µM. Further, the IC50 in data set [2] (Homo sapiens, M-HeLa) was determined as 96.4 ± 8.4 µM. Moreover, the IC50 in data set [3] (Homo sapiens, HuTu80, 48 h) turned out to be 53.9 ± 4.3 µM.
Take `O=C(NCC(c1cc2c(cc1O)OCO2)c1cc2c(cc1O)OCO2)c1nc2ccccc2[nH]1` [Compound 12a]: the melting point lay in the range of 216 to 217 °C.
Compound `O=C(CCl)NCCC1c2c(ccc3ccc(O)cc23)Oc2ccc3ccc(O)cc3c21` [Compound 3d] gave a melting point of 137 to 139 °C. In addition, the IC50 in data set [1] (Homo sapiens, Chang liver) is 54.8 ± 4.4 µM. Besides, in data set [2] (Homo sapiens, M-HeLa), the IC50 turned out to be 38.4 ± 2.7 µM. Moreover, in data set [3], the “Selectivity index” value was 3. In data set [3] (Homo sapiens, HuTu80, 48 h), the IC50 turned out to be 18.1 ± 1.4 µM.
In turn, `O=C(NCC(c1c(O)c2ccccc2oc1=O)c1c(O)c2ccccc2oc1=O)c1nc2ccccc2[nH]1` displayed a melting point of 263 to 265 °C.
Consider `O=C(C[P+](c1ccccc1)(c1ccccc1)c1ccccc1)NCCCC1c2c(ccc3ccccc23)Oc2ccc3ccccc3c21` [Compound 6c], for which the melting point was in the range of 204 to 205 °C. In addition, the IC50 in data set [1] (Homo sapiens, Chang liver) is 33.4 ± 2.8 µM. Further, the IC50 in data set [2] (Homo sapiens, M-HeLa) amounted to 26.6 ± 1.9 µM. The “Selectivity index” value in data set [3] is reported as 4.6. In data set [3] (Homo sapiens, HuTu80, 48 h), the IC50 was determined as 7.3 ± 0.6 µM.
As for `O=C(CCl)NCCC(c1c(O)c2ccccc2oc1=O)c1c(O)c2ccccc2oc1=O` [Compound 5b], the melting point was 134 °C. For the same compound, the IC50 in data set [1] (Homo sapiens, Chang liver) came out at 68.1 ± 5.4 µM. Further, the IC50 in data set [2] (Homo sapiens, M-HeLa) amounted to 65.3 ± 5.4 µM. Further, the IC50 in data set [3] (Homo sapiens, HuTu80) came to 52.1 ± 4.2 µM.
`O=C(CCl)NCC(c1cc2c(cc1O)OCO2)c1cc2c(cc1O)OCO2` [Compound 4a] came in with a melting point of 180 to 182 °C. Moreover, the IC50 in data set [1] (Homo sapiens, Chang liver) was above 100 µM. The IC50 in data set [2] (Homo sapiens, M-HeLa) is above 100 µM. Further, the IC50 in data set [3] (Homo sapiens, HuTu80, 48 h) was above 100 µM.
For the compound `COC(CNC(=O)CCl)OC` [Compound 2a], the IC50 in data set [1] (Homo sapiens, Chang liver) was above 100 µM; in data set [2] (Homo sapiens, M-HeLa), above 100 µM; in data set [3] (Homo sapiens, HuTu80, 48 h), above 100 µM.
Regarding `Cc1cc(O)c(C(CCNC(=O)c2nc3ccccc3[nH]2)c2c(O)cc(C)oc2=O)c(=O)o1` [Compound 12c], the melting point was 189 to 191 °C.
On the same count and under the same terms, the same measure for `O=C(CCl)NCCCC1c2c(ccc3ccc(O)cc23)Oc2ccc3ccc(O)cc3c21` [Compound 3f]: 180 °C.
In turn, `O=C(CCl)NCC1c2c(ccc3ccccc23)Oc2ccc3ccccc3c21` [Compound 3a] came in with a melting point of 200 to 203 °C. In data set [1] (Homo sapiens, Chang liver), the IC50 is above 100 µM. Also, the IC50 in data set [2] (Homo sapiens, M-HeLa) is above 100 µM. Besides, the IC50 in data set [3] (Homo sapiens, HuTu80, 48 h) was above 100 µM.
As to `C[P+](CC(=O)NCCC1c2c(ccc3ccccc23)Oc2ccc3ccccc3c21)(c1ccccc1)c1ccccc1` (as salt: salt) [Compound 6b], the melting point was in the range of 161 to 162 °C.
Compound `O=C(CCl)NCCCC1c2c(ccc3ccccc23)Oc2ccc3ccccc3c21` [Compound 3e] displayed a melting point of 164 to 165 °C. For the same compound, the IC50 in data set [1] (Homo sapiens, Chang liver) was 73.3 ± 6.4 µM. Moreover, in data set [2] (Homo sapiens, M-HeLa), the IC50 is 56.6 ± 4.4 µM. Also, in data set [3] (Homo sapiens, HuTu80, 48 h), the IC50 is above 100 µM.
In the same order, the values of `O=C(C[n+]1ccccc1)NCCC1c2c(ccc3ccccc23)Oc2ccc3ccccc3c21.[Cl-]` [Compound 8] are 156 °C, 100 ± 9.2 µM, 85.2 ± 7.4 µM and 58.4 ± 4.6 µM.
The like results for `O=C(NCC1c2c(ccc3ccccc23)Oc2ccc3ccccc3c21)c1nc2ccccc2[nH]1` [Compound 11a] were, in that order, 216 °C, above 100 µM, above 100 µM and above 100 µM.
In the same order, the values of `O=C(CCl)NCCC1c2c(ccc3ccccc23)Oc2ccc3ccccc3c21` [Compound 3c] are 147 to 149 °C, above 100 µM, 49.6 ± 3.9 µM and 29.3 ± 2.1 µM.
Compound `C[P+](CC(=O)NCCCC1c2c(ccc3ccccc23)Oc2ccc3ccccc3c21)(c1ccccc1)c1ccccc1` [Compound 6d] registered a melting point of 199 to 200 °C. Further, in data set [1] (Homo sapiens, Chang liver), the IC50 amounted to 56.2 ± 4.7 µM. Besides, in data set [2] (Homo sapiens, M-HeLa), the IC50 amounted to 53.2 ± 4.6 µM. Besides, the “Selectivity index” value in data set [3] is 3. Besides, the IC50 in data set [3] (Homo sapiens, HuTu80, 48 h) was 18.5 ± 1.5 µM.
For `COC(CNC(=O)c1nc2ccccc2[nH]1)OC` [Compound 10a], the IC50 in data set [1], in data set [2] and in data set [3] was above 100 µM throughout.
With `O=C(CCl)NCC(c1c(O)c2ccccc2oc1=O)c1c(O)c2ccccc2oc1=O`, the melting point was in the range of 187 to 188 °C.
Compound `O=C(C[P+](c1ccccc1)(c1ccccc1)c1ccccc1)NCCC(c1cc2c(cc1O)OCO2)c1cc2c(cc1O)OCO2` [Compound 7b] displayed a melting point above 250 °C. For the same compound, in data set [1] (Homo sapiens, Chang liver), the IC50 was above 100 µM. In addition, in data set [2] (Homo sapiens, M-HeLa), the IC50 stood at 65.8 ± 5.8 µM. The IC50 in data set [3] (Homo sapiens, HuTu80, 48 h) is 55.4 ± 4.5 µM.
As for `O=C(C[n+]1ccccc1)NCCC(c1cc2c(cc1O)OCO2)c1cc2c(cc1O)OCO2` [Compound 9b], the melting point was found to be 159 °C. Moreover, the IC50 in data set [1] (Homo sapiens, Chang liver) is 95.4 ± 8.7 µM. For the same compound, in data set [2] (Homo sapiens, M-HeLa), the IC50 was 97.8 ± 8.2 µM. Further, in data set [3] (Homo sapiens, HuTu80, 48 h), the IC50 is above 100 µM.
For the compound `COc1cccc2c1C(=O)c1c(O)c3c(c(O)c1C2=O)C[C@@](O)(C(=O)CO)C[C@@H]3O[C@H]1C[C@H](N)[C@H](O)[C@H](C)O1` [Doxorubicin, reference compound], the IC50 in data set [1] (Homo sapiens, Chang liver) was 3 ± 0.1 µM; in data set [2] (Homo sapiens, M-HeLa) it was 3 ± 0.2 µM; in data set [3] (Homo sapiens, HuTu80, 48 h) it was 3 ± 0.2 µM. Also, the “Selectivity index” value in data set [3] turned out to be 1.
